From patent publication EP0646579A1, “Ketonic indane derivatives and heterocyclic analysis and their use in therapy” (LABORATOIRE INNOTHERA Société Anonyme, priority 1993, dated 1995)

Experiments:
[1] = test system: hyperperméabilité vasculaire induite par le zymosan; assay: Vascular hyperpermeability induced by zymosan, in vivo; conditions: oral administration of 1-20 mg/kg
From the text: La perméabilité vasculaire est étudiée in vivo et in vitro par la mesure de l'extravasation d'albumine ou de colorant liant l'albumine (Bleu Evans). In vivo, l'hyperperméabilité est induite par l'injection d'une solution d'histamine, de bradykinine ou de zymosan. Les modèles in vitro permettent de réaliser des hyperpressions (sur un territoire vasculaire isolé) et/ou des réactions vasculaires inflammatoires.
A titre illustratif, les composés des exemples 1, 2, 3, 5 inhibent l'hyperperméabilité vasculaire induite par le zymosan après administration orale de 1-20 mg/kg.

veines saphènes de lapin = assay: Contraction of isolated rabbit saphenous veins produced by KCl (40 mM); format: cell-based; conditions: for augmentation des contractions des veines saphènes de lapin produites par le KCl: KCl 40 mM, compounds 10 nM à 30 mM; for EC50: increase of KCl (40 mM) contraction of rabbit saphenous veins, read-out: DE₅₀
From the text: L'effet contractile est mesuré in vitro : • par la force de contraction développée par des anneaux vasculaires quiescents ou stimulés (soit électriquement soit par des agents physiologiques) et maintenus dans des conditions isométriques, • par la pression développée par des réseaux vasculaires perfusés à débit constant.
Les composés de formule (I) et leurs sels éventuels augmentent la contraction des veines saphènes animales produite par la noradrénaline et la dépolarisation (solution hyperpotassique) sans affecter, dans la majorité des cas, les réponses contractiles artérielles. A titre illustratif, les composés des exemples 1, 2, 3, 5 (10 nM à 30 mM) augmentent de plus de 40 % (DE₅₀ + 0,3 microM) les contractions des veines saphènes de lapin produites par le KCl (40 mM).

[2] = Free radical scavenging, DPPH model; format: biochemical; conditions: DPPH as stable free radical, in vitro
From the text: L'effet "piégeur de radicaux libres" global est étudié in vitro par un modèle utilisant le 1,1-diphényl-2-picrylhydrazyl (DPPH) comme radical libre stable, méthode dérivée de celle décrite par Lamaison et col., Plantes Médic. et Phytothérapie, XXII, 1988, 231-234.

rat = assay: Carrageenan-induced pleurisy in the rat; format: in vivo; conditions: 5 mg/kg i.p. twice; for migration leucocytaire dans la cavité pleurale: 6 hours after carrageenan injection; for oedème: 6 hours after carrageenan injection into the pleural cavity
Description: L'activité antiinflammatoire est démontrée par la mesure de l'inhibition de l'oedème et de la migration leucocytaire après induction d'une pleurésie chez le rat par injection de carragénine dans la cavité pleurale (Almeida et col., J. Pharmacol. Exp. Therap., 1980, 214 : 74).
Le composé des exemples 31, 3, 5 administrés deux fois en i.p. à la dose de 5 mg/kg inhibent l'oedème et la migration leucocytaire dans la cavité pleurale, 6 heures après injection de carragénine dans le modèle de la pleurésie chez le rat.

Structure (SMILES)	EC50 (veines saphènes de lapin) [nM]	hyperperméabilité vasculaire induite par le zymosan [1]	augmentation des contractions des veines saphènes de lapin produites par le KCl (veines saphènes de lapin) [%]	effet antiradicalaire [2]	migration leucocytaire dans la cavité pleurale (rat)	oedème (rat)
O=c1c(=NNc2nc3ccccc3s2)c(=O)c2ccccc12 [exemple 1, 2-(Benzothiazol-2-yl-hydrazono)-2.3-dihydro-1.3-dioxo-1H-indene]	~300	inhibent	> 40			
O=c1c(=NNc2nc3cnccc3[nH]2)c(=O)c2ccccc12 [exemple 5, 2-(5-Azabenzimidazol-2-yl-hydrazono)-2.3-dihydro-1.3-dioxo-1H-indene]	~300	inhibent	> 40		inhibent	inhibent
O=C(NN=c1c(=O)c2cccnc2c1=O)Nc1ccccc1 [exemple 6, 5.7-Dioxo-6-(phenylaminocarbonylhydrazono)cyclopenta[b]pyridine]				effet antiradicalaire		

More lines, in order of falling EC50 (veines saphènes de lapin), values ahead:

EC50 (veines saphènes de lapin) [nM]	Structure (SMILES)	hyperperméabilité vasculaire induite par le zymosan [1]	augmentation des contractions des veines saphènes de lapin produites par le KCl (veines saphènes de lapin) [%]	effet antiradicalaire [2]	migration leucocytaire dans la cavité pleurale (rat)	oedème (rat)
~300	O=c1c(=NNc2nc3ccccc3o2)c(=O)c2ccccc12 [exemple 2, 2-(Benzoxazol-2-yl-hydrazono)-2.3-dihydro-1.3-dioxo-1H-indene]	inhibent	> 40	effet antiradicalaire		
~300	O=c1c(=NNc2nc3ccccc3[nH]2)c(=O)c2ccccc12 [exemple 3, 2-(Benzimidazol-2-yl-hydrazono)-2.3-dihydro-1.3-dioxo-1H-indene]	inhibent	> 40		inhibent	inhibent
